{"source": "patent EP0882015B1", "about": "“DIPHENYL STILBENES AS PRODRUGS TO COX-2 INHIBITORS” (Merck Frosst Canada & Co., priority 1996, dated 1997)", "assay": "Rat plasma levels, per os pharmacokinetics in rats (conversion of prodrug to active COX-2 inhibitor)", "assay_type": "in vivo, Male Sprague Dawley rats", "conditions": "maximum plasma concentration of the corresponding lactone (active COX-2 inhibitor) observed in rats dosed at 20 mg/kg orally with the indicated prodrug", "excerpt": "The animals are housed, fed and cared for according to the Guidelines of the Canadian Council on Animal Care.\nMale Sprague Dawley rats (325-375 g) are fasted overnight prior to each PO blood level study.\nThe rats are placed in the restrainer one at a time and the box is firmly secured. The zero blood sample is obtained by nicking a small (1 mm or less) piece off the tip of the tail. The tail is then stroked with a firm but gentle motion from the top to the bottom to milk out the blood. Approximately 1 mL of blood is collected into a heparinized vacutainer tube.\nCompounds are prepared as required, in a standard dosing volume of 10mL/kg, and administered orally by passing a 16 gauge, 3\" gavaging needle into the stomach.\nSubsequent bleeds are taken in the same manner as the zero bleed except that there is no need to nick the tail again. The tail is cleaned with a piece of gauze and milked/stroked as described above into the appropriately labelled tubes.\nImmediately after sampling, blood is centrifuged, separated, put into clearly marked vials and stored in a freezer until analysed. […]\nFor analysis, aliquots are diluted with an equal volume of acetonitrile and centrifuged to remove protein precipitate. […] Quantitation is done relative to a clean blood sample spiked with a known quantity of drug. […]", "data": [{"smiles": "COC(=O)/C(=C(\\C)c1ccc(S(C)(=O)=O)cc1)c1ccccc1", "note": "[Example 1, (E)-3-(4-Methylsulfonyl)phenyl-2-phenylbut-2-enoic acid methyl ester]", "values": [{"measurement": "Plasma Levels", "result": 1000, "unit": "nM"}]}]}
